Common to all, as to assay: relative viability (nuclei count vs DMSO), 5 days (fraction); higher = more cells survive
Compound in one experiment: Cc1cnc(Nc2ccc(OCCN3CCCC3)cc2)nc1Nc1cccc(S(=O)(=O)NC(C)(C)C)c1 [Fedratinib]
An outline of the steps:
(§1)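 Hoechst staining, done together with fixation and permeabilisation, marked nuclei for 4× imaging and MetaXpress counting. This followed 5 days without medium change after lung cancer cell lines, kept overnight at 37 °C in 1536-well plates, were pinned with five library-drug doses (not always all listed) spaced by √10 on vehicle-anchored plates. Viability is the ratio of treated-well to vehicle-well nuclei, expressed as a median across plates. Plates passed only at control CV below 25% with at least one doubling.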

Compound in another experiment: COC1=CC=C(C=C1)COC2=C(C=C(C=C2)CC3=CN=C(N=C3N)N)OC [GW-2580]
An outline of the steps: as §1

Compound in the experiment “GW-2580 + Bortezomib”: COC1=CC=C(C=C1)COC2=C(C=C(C=C2)CC3=CN=C(N=C3N)N)OC [GW-2580] + CC(C)C[C@H](NC(=O)[C@H](Cc1ccccc1)NC(=O)c1cnccn1)B(O)O [Bortezomib] (partner 0.002 µM)
An outline of the steps: (§2)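 Cells from lung cancer lines were seeded into 1536-well plates and, one day later, dosed by pin tool. Treatments were either a single drug or a fixed dose of an anchor drug with five library-drug doses (not always all listed) in √10 steps. After 5 days, nuclei were stained in a one-step fixation (final 0.05% Triton X-100, 1% formaldehyde, 1 ug/ml Hoechst) and counted on 4× images, and relative viability is the treated-to-vehicle nuclei ratio, as the median of duplicate plates.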

Compound in the experiment “GW-2580 + Pemetrexed”: COC1=CC=C(C=C1)COC2=C(C=C(C=C2)CC3=CN=C(N=C3N)N)OC [GW-2580] + Nc1nc2[nH]cc(CCc3ccc(C(=O)N[C@@H](CCC(=O)O)C(=O)O)cc3)c2c(=O)[nH]1 [Pemetrexed] (partner 0.2 µM)
The method, boiled down: as §2

Drawing on the supplement of paper PMC10307832, this text covers relative viability for 10 cell lines.

In the case of NCI-H441, the relative viability in the experiment with Fedratinib (0.1 µM) worked out at 1.03; in the experiment with Fedratinib (0.3162 µM) it was 1.04; in the experiment with Fedratinib (1 µM) it was 0.734; with GW-2580 (0.08 µM), 1.07; in the experiment with GW-2580 (0.8 µM), 0.924; in the experiment with GW-2580 (2.53 µM), 1.01. The relative viability was determined as 1.14 with GW-2580 (8 µM); 0.608 with GW-2580 + Bortezomib (first compound 0.08 µM); 0.254 in the experiment with GW-2580 + Bortezomib (first compound 0.8 µM); 0.288 with GW-2580 + Bortezomib (first compound 2.53 µM); 1.13 in the experiment with GW-2580 + Bortezomib (first compound 8 µM); 0.273 with GW-2580 + Pemetrexed (first compound 0.08 µM). Also, the relative viability in the experiment with GW-2580 + Pemetrexed (first compound 0.8 µM) is 0.26; with GW-2580 + Pemetrexed (first compound 2.53 µM) it was 0.234; with GW-2580 + Pemetrexed (first compound 8 µM), 0.262.

Consider NCI-H460, for which the relative viability with Fedratinib (0.1 µM) is 0.997; with Fedratinib (0.3162 µM), 0.974; with Fedratinib (1 µM), 0.979; in the experiment with GW-2580 (0.08 µM), 1.07; with GW-2580 (0.8 µM), 1.05; with GW-2580 (2.53 µM), 1.01. Further, the relative viability is 0.952 in the experiment with GW-2580 (8 µM); 1.29 in the experiment with GW-2580 + Bortezomib (first compound 0.08 µM); 1.27 with GW-2580 + Bortezomib (first compound 0.8 µM); 1.03 with GW-2580 + Bortezomib (first compound 2.53 µM); 1.19 with GW-2580 + Bortezomib (first compound 8 µM); 0.0622 in the experiment with GW-2580 + Pemetrexed (first compound 0.08 µM). Also, the results for the relative viability with GW-2580 + Pemetrexed (first compound 0.8 µM), in the experiment with GW-2580 + Pemetrexed (first compound 2.53 µM) and with GW-2580 + Pemetrexed (first compound 8 µM) were 0.0626, 0.0647 and 0.0595, respectively.

On to NCI-H520, for which the relative viability in the experiment with Fedratinib (0.1 µM) came out at 0.93; in the experiment with Fedratinib (0.3162 µM), 0.997; with Fedratinib (1 µM), 0.9; with GW-2580 (0.08 µM) it was 1.09; with GW-2580 (0.8 µM) it was 1.13; in the experiment with GW-2580 (2.53 µM) it was 0.894. The relative viability in the experiment with GW-2580 (8 µM) was 1.12; in the experiment with GW-2580 + Bortezomib (first compound 0.08 µM) it was 0.58; with GW-2580 + Bortezomib (first compound 0.8 µM), 0.923; with GW-2580 + Bortezomib (first compound 2.53 µM) it was 0.602; with GW-2580 + Bortezomib (first compound 8 µM), 0.672; with GW-2580 + Pemetrexed (first compound 0.08 µM), 0.7. Besides, the results for the relative viability with GW-2580 + Pemetrexed (first compound 0.8 µM), with GW-2580 + Pemetrexed (first compound 2.53 µM) and with GW-2580 + Pemetrexed (first compound 8 µM) were 0.579, 0.598 and 0.554, respectively.

Turning to NCI-H596, the relative viability with Fedratinib (0.1 µM) came to 0.99; with Fedratinib (0.3162 µM) it was 0.973; with Fedratinib (1 µM) it was 0.851; with GW-2580 (0.08 µM), 1.03; with GW-2580 (0.8 µM), 1.07; in the experiment with GW-2580 (2.53 µM), 1.02. The relative viability in the experiment with GW-2580 (8 µM) is 1.18; in the experiment with GW-2580 + Bortezomib (first compound 0.08 µM) it was 0.938; with GW-2580 + Bortezomib (first compound 0.8 µM), 1.06; in the experiment with GW-2580 + Bortezomib (first compound 2.53 µM) it was 1.23; with GW-2580 + Bortezomib (first compound 8 µM), 1.01; with GW-2580 + Pemetrexed (first compound 0.08 µM), 0.44. Moreover, the relative viability in the experiment with GW-2580 + Pemetrexed (first compound 0.8 µM) is 0.502; in the experiment with GW-2580 + Pemetrexed (first compound 2.53 µM) it was 0.562; in the experiment with GW-2580 + Pemetrexed (first compound 8 µM), 0.512.

As to NCI-H647, the relative viability with Fedratinib (0.1 µM) is 0.867; in the experiment with Fedratinib (0.3162 µM), 0.952; with Fedratinib (1 µM), 0.777; with GW-2580 (0.08 µM), 1.12; with GW-2580 (0.8 µM), 1.14; with GW-2580 (2.53 µM), 0.846. Further, the relative viability came to 0.97 in the experiment with GW-2580 (8 µM); 1.1 with GW-2580 + Bortezomib (first compound 0.08 µM); 0.994 with GW-2580 + Bortezomib (first compound 0.8 µM); 0.756 in the experiment with GW-2580 + Bortezomib (first compound 2.53 µM); 1.09 with GW-2580 + Bortezomib (first compound 8 µM); 0.16 with GW-2580 + Pemetrexed (first compound 0.08 µM). In addition, the relative viability with GW-2580 + Pemetrexed (first compound 0.8 µM) stood at 0.185; with GW-2580 + Pemetrexed (first compound 2.53 µM), 0.16; in the experiment with GW-2580 + Pemetrexed (first compound 8 µM), 0.229.

Turning to NCI-H650, the relative viability in the experiment with Fedratinib (0.1 µM) turned out to be 0.709; with Fedratinib (0.3162 µM), 0.892; with Fedratinib (1 µM) it was 0.418; with GW-2580 (0.08 µM), 0.974; with GW-2580 (0.8 µM), 1.04; with GW-2580 (2.53 µM), 0.817. Moreover, the relative viability was found to be 0.961 with GW-2580 (8 µM); 0.807 with GW-2580 + Bortezomib (first compound 0.08 µM); 1.06 with GW-2580 + Bortezomib (first compound 0.8 µM); 0.658 with GW-2580 + Bortezomib (first compound 2.53 µM); 0.845 with GW-2580 + Bortezomib (first compound 8 µM); 1.04 with GW-2580 + Pemetrexed (first compound 0.08 µM). The results for the relative viability in the experiment with GW-2580 + Pemetrexed (first compound 0.8 µM), with GW-2580 + Pemetrexed (first compound 2.53 µM) and with GW-2580 + Pemetrexed (first compound 8 µM) were 1.11, 0.792 and 0.855, respectively.

In the case of NCI-H661, the relative viability with Fedratinib (0.1 µM) worked out at 0.876; in the experiment with Fedratinib (0.3162 µM) it was 1.06; with Fedratinib (1 µM), 0.914; with GW-2580 (0.08 µM), 1.03; with GW-2580 (0.8 µM), 1.04; with GW-2580 (2.53 µM), 0.951. Further, the relative viability with GW-2580 (8 µM) came to 0.814; with GW-2580 + Bortezomib (first compound 0.08 µM), 0.741; with GW-2580 + Bortezomib (first compound 0.8 µM), 0.752; with GW-2580 + Bortezomib (first compound 2.53 µM), 0.747; with GW-2580 + Bortezomib (first compound 8 µM), 0.676; with GW-2580 + Pemetrexed (first compound 0.08 µM) it was 1.04. For the same cell line, the values for the relative viability with GW-2580 + Pemetrexed (first compound 0.8 µM), with GW-2580 + Pemetrexed (first compound 2.53 µM) and in the experiment with GW-2580 + Pemetrexed (first compound 8 µM) were 0.901, 0.957 and 0.782, respectively.

NCI-H838: the relative viability turned out to be 0.928 with Fedratinib (0.1 µM); 0.996 in the experiment with Fedratinib (0.3162 µM); 0.8 in the experiment with Fedratinib (1 µM); 1.09 in the experiment with GW-2580 (0.08 µM); 1.05 with GW-2580 (0.8 µM); 0.884 with GW-2580 (2.53 µM). Further, the relative viability with GW-2580 (8 µM) was 1; with GW-2580 + Bortezomib (first compound 0.08 µM) it was 0.943; with GW-2580 + Bortezomib (first compound 0.8 µM), 0.831; in the experiment with GW-2580 + Bortezomib (first compound 2.53 µM) it was 0.691; with GW-2580 + Bortezomib (first compound 8 µM) it was 1.02; in the experiment with GW-2580 + Pemetrexed (first compound 0.08 µM), 0.268. Also, the relative viability worked out at 0.262 in the experiment with GW-2580 + Pemetrexed (first compound 0.8 µM), 0.234 in the experiment with GW-2580 + Pemetrexed (first compound 2.53 µM) and 0.266 with GW-2580 + Pemetrexed (first compound 8 µM).

On to NCI-H1355, for which the relative viability with Fedratinib (0.1 µM) was found to be 1; with Fedratinib (0.3162 µM), 0.993; with Fedratinib (1 µM) it was 0.904; with GW-2580 (0.08 µM) it was 1.03; with GW-2580 (0.8 µM), 1.11; with GW-2580 (2.53 µM) it was 0.837. Besides, the relative viability with GW-2580 (8 µM) amounted to 0.976; in the experiment with GW-2580 + Bortezomib (first compound 0.08 µM), 1.24; in the experiment with GW-2580 + Bortezomib (first compound 0.8 µM), 1.38; with GW-2580 + Bortezomib (first compound 2.53 µM) it was 1.06; in the experiment with GW-2580 + Bortezomib (first compound 8 µM) it was 1.16; in the experiment with GW-2580 + Pemetrexed (first compound 0.08 µM), 1.09. The relative viability in the experiment with GW-2580 + Pemetrexed (first compound 0.8 µM) came out at 1.13; in the experiment with GW-2580 + Pemetrexed (first compound 2.53 µM) it was 0.914; with GW-2580 + Pemetrexed (first compound 8 µM), 0.965.

NCI-H1437: the relative viability was 0.978 with Fedratinib (0.1 µM); 0.982 in the experiment with Fedratinib (0.3162 µM); 0.926 with Fedratinib (1 µM); 1 with GW-2580 (0.08 µM); 1.06 with GW-2580 (0.8 µM); 0.926 in the experiment with GW-2580 (2.53 µM). The relative viability with GW-2580 (8 µM) was determined as 0.835; with GW-2580 + Bortezomib (first compound 0.08 µM), 0.654; in the experiment with GW-2580 + Bortezomib (first compound 0.8 µM), 0.569; in the experiment with GW-2580 + Bortezomib (first compound 2.53 µM), 0.518; with GW-2580 + Bortezomib (first compound 8 µM), 0.516; with GW-2580 + Pemetrexed (first compound 0.08 µM), 0.297. In addition, the relative viability worked out at 0.307 in the experiment with GW-2580 + Pemetrexed (first compound 0.8 µM), 0.299 in the experiment with GW-2580 + Pemetrexed (first compound 2.53 µM) and 0.273 with GW-2580 + Pemetrexed (first compound 8 µM).
